Consider 16 compounds from patent publication US8124624B2, “Substituted sulfonamide compounds” (Gruenenthal GmbH, priority 2008, dated 2012).

SMILES strings stand for the structures.

A word on the inhibition: it is the change of the read-out against control, counted positive when it falls.

For this assay, the target named is T1, B1R of the rat (Rattus norvegicus, UniProt P97583).
T1 construct: expressed in transfected cells; host or cells: CHO K1 cells (rB1R cells)
T1 sequence (P97583 1-337): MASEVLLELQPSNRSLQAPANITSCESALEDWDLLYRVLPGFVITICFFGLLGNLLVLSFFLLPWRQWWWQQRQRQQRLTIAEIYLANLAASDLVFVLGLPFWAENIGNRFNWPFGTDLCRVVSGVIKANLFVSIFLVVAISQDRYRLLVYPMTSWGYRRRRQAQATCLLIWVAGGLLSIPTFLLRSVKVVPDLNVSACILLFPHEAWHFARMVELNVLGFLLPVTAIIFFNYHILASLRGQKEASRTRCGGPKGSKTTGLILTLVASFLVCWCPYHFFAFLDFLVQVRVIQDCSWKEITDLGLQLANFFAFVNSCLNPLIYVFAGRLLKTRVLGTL
Put plainly: FLIPR Ca2+ influx assay, B1R antagonism, rat (rB1R CHO K1 cells). In kind it is cell-based. To be noted: test substance 10 μM, CHO K1 cells stably transfected with rat B1R, agonist Des-Arg9-bradykinin at EC80, % inhibition compared with maximum achievable inhibition; for inhibition at 10 µM: read-out: B1R antagonism, rat [10 μM] % inhibition. The procedure: The agonistic or antagonistic action of substances can be quantified on the bradykinin receptor 1 (B1R) of the species human and rat using ectopically expressing cell lines (CHO K1 cells) and with the aid of a Ca^2+-sensitive dye (Fluo-4) using a fluorescent imaging plate reader (FLIPR). The indication in % activation is based on the Ca^2+ signal after addition of Lys-Des-Arg^9-bradykinin (0.5 nM) or Des-Arg^9-bradykinin (100 nM). Antagonists lead to suppression of the Ca^2+ influx after the addition of the agonist. % Inhibition compared with the maximum achievable inhibition is indicated.
The agonistic or antagonistic action of substances can be determined on the bradykinin receptor 1 (B1R) of the species human and rat using the following assay. According to this assay, the Ca^2+ influx through the channel is quantified with the aid of a Ca^2+-sensitive dye (Fluo-4 type, Molecular Probes Europe BV, Leiden, Netherlands) using a Fluorescent Imaging Plate Reader (FLIPR, Molecular Devices, Sunnyvale, USA).
Chinese hamster ovary cells (CHO K1 cells) which have been stably transfected with the human B1R gene (hB1R cells) or with the B1R gene of the rat (rB1R cells) are used. For functional studies, the cells are plated out on black 96-well plates having a clear base (BD Biosciences, Heidelberg, Germany or Greiner, Frickenhausen, Germany) in a density of 20,000-35,000 cells/well. The cells are incubated overnight at 37° C. and with 5% CO2 in culture medium (hB1R cells: Nutrient Mixture Ham's F12, Gibco Invitrogen GmbH, Karlsruhe, Germany or DMEM, Sigma-Aldrich, Taufkirchen, Germany; rB1R cells: D-MEM/F12, Gibco Invitrogen GmbH, Karlsruhe, Germany), with 10 vol. % FBS (fetal bovine serum, Gibco Invitrogen GmbH, Karlsruhe, Germany or PAN Biotech GmbH, Aidenbach, Germany).
On the following day, the cells are loaded for 60 minutes at 37° C. with 2.13 μM Fluo-4 (Molecular Probes Europe BV, Leiden, Netherlands) in HBSS buffer (Hank's buffered saline solution, Gibco Invitrogen GmbH, Karlsruhe, Germany) […] (Sigma-Aldrich, Taufkirchen, Germany) and 10 mM HEPES (Sigma-Aldrich, Taufkirchen, Germany). The plates are then washed twice with HBSS buffer, and HBSS buffer additionally containing 0.1% BSA (bovine serum albumin; Sigma-Aldrich, Taufkirchen, Germany), 5.6 mM glucose and 0.05% gelatin (Merck KGaA, Darmstadt, Germany) is added to the plates. After incubation for a further 20 minutes at room temperature, the plates are inserted into the FLIPR for Ca^2+ measurement.
Alternatively, washing is carried out with buffer A (15 mM HEPES, 80 mM NaCl, 5 mM KCl, 1.2 mM CaCl2, 0.7 mM MgSO4, 2 g/l glucose, 2.5 mM probenecid) followed by loading with buffer A with added 2.5 μM Fluo-4 and 0.025% Pluronic F127 (Sigma-Aldrich, Taufkirchen, Germany). The cells are then washed twice with buffer A and incubated for 30 minutes at room temperature with buffer A additionally containing 0.05% BSA and 0.05% gelatin and are then inserted into the FLIPR for Ca^2+ measurement.
The Ca^2+-dependent fluorescence is measured before and after the addition of substances (λex=488 nm, λem=540 nm). Quantification is carried out by measuring the highest fluorescence intensity (FC, fluorescence counts) over time.
The FLIPR protocol consists of two substance additions. Test substances (10 μM) are first pipetted onto the cells and the Ca^2+ influx is compared with the control (hB1R: Lys-Des-Arg^9-bradykinin >=50 nM; rB1R: Des-Arg^9-bradykinin 10 μM). This gives the activation in %, based on the Ca^2+ signal after addition of Lys-Des-Arg^9-bradykinin (>=50 nM) or Des-Arg^9-bradykinin (10 μM). After 10-20 minutes' incubation, Lys-Des-Arg^9-bradykinin (hB1R) or Des-Arg^9-bradykinin (rB1R) is applied in the concentration of the EC80, and the influx of Ca^2+ is likewise determined. Antagonists lead to suppression of the Ca^2+ influx. The % inhibition compared with the maximum achievable inhibition is calculated. […]

Turning to `COc1cc(C)c(S(=O)(=O)N2CCCCC2COCC(=O)N2CCC(CCCN3CCCC3)(c3ccncc3)CC2)c(C)c1` (stereo not shown) [Example 28, 2-[[1-[(4-Methoxy-2,6-dimethyl-phenyl)sulfonyl]-piperidin-2-yl]-methoxy]-1-[4-pyridin-4-yl-4-(3-pyrrolidin-1-yl-propyl)-piperidin-1-yl]-ethanone], the inhibition at 10 µM worked out at 97%. Still for that read-out and setting: the same measure for `COc1cc(C)c(S(=O)(=O)N(C)CCOCC(=O)N2CCC(CCCN3CCCC3)(c3ccncc3)CC2)c(C)c1` [Example 30, 4-Methoxy-N,2,6-trimethyl-N-[2-[2-oxo-2-[4-pyridin-4-yl-4-(3-pyrrolidin-1-yl-propyl)-piperidin-1-yl]-ethoxy]-ethyl]-benzenesulfonic acid amide]: 100%; for `COc1cc(C)c(S(=O)(=O)N(C)CCOCC(=O)N2CCC(CCCN3CCCC3)(c3ccncc3)CC2)c(C)c1C` [Example 32, 4-Methoxy-N,2,3,6-tetramethyl-N-[2-[2-oxo-2-[4-pyridin-4-yl-4-(3-pyrrolidin-1-yl-propyl)-piperidin-1-yl]-ethoxy]-ethyl]-benzenesulfonic acid amide]: 100%; for `COc1cc(C)c(S(=O)(=O)N(CCOCC(=O)N2CCC(CCCN3CCCC3)(c3ccncc3)CC2)Cc2ccccc2)c(C)c1` [Example 39, N-Benzyl-4-Methoxy-2,6-dimethyl-N-[2-[2-oxo-2-[4-pyridin-4-yl-4-(3-pyrrolidin-1-yl-propyl)-piperidin-1-yl]-ethoxy]-ethyl]-benzenesulfonic acid amide]: 99%. As for `COc1cc(C)c(S(=O)(=O)N(CCOCC(=O)N2CCC(CCCN3CCCC3)(c3ccncc3)CC2)Cc2ccccc2)c(C)c1` [Example 40, N-Benzyl-4-Methoxy-2,6-dimethyl-N-[2-[2-oxo-2-[4-pyridin-4-yl-4-(3-pyrrolidin-1-yl-propyl)-piperidin-1-yl]-ethoxy]-ethyl]-benzenesulfonic acid amide], the “B1R antagonism, rat [10 μM] % inhibition” value was 100%. Take `O=C(COCC1CCCCN1S(=O)(=O)c1ccccc1C(F)(F)F)N1CCC(CCCN2CCCC2)(c2ccncc2)CC1` (stereo not shown) [Example 43, 1-[4-Pyridin-4-yl-4-(3-pyrrolidin-1-yl-propyl)-piperidin-1-yl]-2-[[1-[[2-(trifluoromethyl)-phenyl]sulfonyl]-piperidin-2-yl]-methoxy]-ethanone]: the inhibition at 10 µM amounted to 101%.

For `O=C(COCC1CCCCN1S(=O)(=O)c1ccccc1C(F)(F)F)N1CCC(CCCN2CCCC2)(c2ccncc2)CC1` (stereo not shown) [Example 44, 1-[4-Pyridin-4-yl-4-(3-pyrrolidin-1-yl-propyl)-piperidin-1-yl]-2-[[1-[[2-(trifluoromethyl)-phenyl]sulfonyl]-piperidin-2-yl]-methoxy]-ethanone], the “B1R antagonism, rat [10 μM] % inhibition” value was 100%.

On to `COc1cc(C)c(S(=O)(=O)N2CCCCC2CCOCC(=O)N2CCC(CCCN3CCCC3)(c3cccnc3)CC2)c(C)c1` (stereo not shown) [Example 45, 2-[2-[1-[(4-Methoxy-2,6-dimethyl-phenyl)sulfonyl]-piperidin-2-yl]-ethoxy]-1-[4-pyridin-3-yl-4-(3-pyrrolidin-1-yl-propyl)-piperidin-1-yl]-ethanone], for which the inhibition at 10 µM was 100%.

As to `COc1cc(C)c(S(=O)(=O)N2CCCCC2CCOCC(=O)N2CCC(CCCN3CCCC3)(c3cccnc3)CC2)c(C)c1` (stereo not shown) [Example 46, 2-[2-[1-[(4-Methoxy-2,6-dimethyl-phenyl)sulfonyl]-piperidin-2-yl]-ethoxy]-1-[4-pyridin-3-yl-4-(3-pyrrolidin-1-yl-propyl)-piperidin-1-yl]-ethanone], the “B1R antagonism, rat [10 μM] % inhibition” value worked out at 101%.

As for `CN(CCCC(=O)N1CCC(CCCN2CCCC2)(c2cccnc2)CC1)S(=O)(=O)c1cccc(C(F)(F)F)c1` [Example 47, N-Methyl-N-[4-Oxo-4-[4-pyridin-3-yl-4-(3-pyrrolidin-1-yl-propyl)-piperidin-1-yl]-butyl]-3-(trifluoromethyl)-benzenesulfonic acid amide], the inhibition at 10 µM was 53%. As to `COc1cc(C)c(S(=O)(=O)N(CCOCC(=O)N2CCC(CCCN3CCCC3)(c3ccncc3)CC2)c2ccccc2)c(C)c1` [Example 50, 4-Methoxy-2,6-Dimethyl-N-[2-[2-oxo-2-[4-pyridin-4-yl-4-(3-pyrrolidin-1-yl-propyl)-piperidin-1-yl]-ethoxy]-ethyl]-N-phenyl-benzenesulfonic acid amide], the inhibition at 10 µM amounted to 100%. With `O=C(COCC1CCc2ccccc2N1S(=O)(=O)c1ccc2ccccc2c1)N1CCC(CCCN2CCCC2)(c2cccnc2)CC1` (stereo not shown) [Example 51, 2-[[1-(Naphthalen-2-ylsulfonyl)-1,2,3,4-tetrahydro-quinolin-2-yl]-methoxy]-1-[4-pyridin-3-yl-4-(3-pyrrolidin-1-yl-propyl)-piperidin-1-yl]-ethanone], the inhibition at 10 µM was determined as 80%. On to `O=C(COCC1CCc2ccccc2N1S(=O)(=O)c1ccc2ccccc2c1)N1CCC(CCCN2CCCC2)(c2cccnc2)CC1` (stereo not shown) [Example 52, 2-[[1-(Naphthalen-2-ylsulfonyl)-1,2,3,4-tetrahydro-quinolin-2-yl]-methoxy]-1-[4-pyridin-3-yl-4-(3-pyrrolidin-1-yl-propyl)-piperidin-1-yl]-ethanone], for which the “B1R antagonism, rat [10 μM] % inhibition” value was determined as 83%.

Turning to `COc1cc(C)c(S(=O)(=O)N2c3ccccc3CCC2COCC(=O)N2CCC(CCCN3CCCC3)(c3ccncc3)CC2)c(C)c1` (stereo not shown) [Example 55, 2-[[1-[(4-Methoxy-2,6-dimethyl-phenyl)sulfonyl]-1,2,3,4-tetrahydro-quinolin-2-yl]-methoxy]-1-[4-pyridin-4-yl-4-(3-pyrrolidin-1-yl-propyl)-piperidin-1-yl]-ethanone], the inhibition at 10 µM was 98%.

Turning to `Cc1cccc(Cl)c1S(=O)(=O)N1CCCCC1CCCC(=O)N1CCC(CCCN2CCCC2)(c2ccncc2)CC1` (stereo not shown) [Example 56, 4-[1-[(2-Chloro-6-methyl-phenyl)sulfonyl]-piperidin-2-yl]-1-[4-pyridin-4-yl-4-(3-pyrrolidin-1-yl-propyl)-piperidin-1-yl]-butan-1-one], the inhibition at 10 µM was 97%. Consider `O=C(CCCC1CCCCN1S(=O)(=O)c1ccccc1C(F)(F)F)N1CCC(CCCN2CCCC2)(c2cccnc2)CC1` (stereo not shown) [Example 57, 1-[4-Pyridin-3-yl-4-(3-pyrrolidin-1-yl-propyl)-piperidin-1-yl]-4-[1-[[2-(trifluoromethyl)-phenyl]sulfonyl]-piperidin-2-yl]-butan-1-one], for which the inhibition at 10 µM is 70%.
